{
  "source": "patent US20110294144A1",
  "about": "“SCREENING METHOD” (priority 2008, published 2011)",
  "key": {"[1]": {"system": "mouse primary nerve cells infected with PRKX overexpression lentivirus", "assay": "Immunostaining of S214 phosphorylated tau in mouse primary nerve cells infected with PRKX overexpression lentivirus", "format": "cell-based", "conditions": "DIV12 mouse primary nerve cells, PRKX lentivirus MOI=2", "text": "DIV12 mouse primary nerve cells plated in a 48 well plate at a concentration of 3.5×10^3 cells/well were infected with PRKX overexpression lentiviruses at MOI=2. Two days later, the cells were fixed with 4% para-formaldehyde, washed with phosphate buffer, and blocked with a phosphate buffer containing 1.5% BSA and 0.1% Triton X-100. Thereafter, as a primary antibody, an anti-S214 phosphorylated tau antibody was used to label phosphorylated tau, and an anti-MAP2 monoclonal antibody (Chemicon International) was used to label nerve cells. After washing, anti-S214 phosphorylated tau antibody was stained with anti-rabbit alexafluoro594-labeled secondary antibody, and anti-MAP2 antibody was stained with anti-mouse alexafluoro488-labeled secondary antibody (Invitrogen), and they were photographed using Discovery-1. As a result, the amount of tau S214 phosphorylation decreased due to H-89."}, "[2]": {"system": "H4-tau cells infected with PRKX overexpression lentivirus", "assay": "Thioflavin S positive cell count (tau aggregation) in H4-tau cells infected with PRKX overexpression lentivirus", "format": "cell-based, human", "conditions": "3 μM H-89, added three days after infection; PRKX lentivirus MOI=2.5", "method": "H4-tau cells were plated in a 24 well plate at a concentration of 1×10^5 cells/well and, the next day, infected with PRKX or lacZ overexpression lentivirus at MOI=1 or 2.5. Three days later, H-89 was added to a concentration of 3 μM. The next day, the cells fixed with 4% para-formaldehyde were washed with phosphate buffer, and blocked with phosphate buffer containing 1.5% BSA and 0.1% Triton X-100. Thereafter, the cells were stained by using S214 phosphorylated tau, and anti-S214 phosphorylated tau or total tau antibody as a primary antibody and anti-rabbit Alexa Fluor 594-labeled secondary antibody as a secondary antibody. Thereafter, the cells were left standing in 0.005% aqueous thioflavin S (Sigma Ltd.) solution for 5 min, and washed twice with 70% ethanol and once with water. Furthermore, the nucleus was stained with DAPI. The stained cells were photographed by Discovery-1, and the number of DAPI positive cells and the number of thioflavin S positive cells were counted by metamorph software (Molecular Device) based on the images taken by Discovery-1. In the PRKX infected well, the number of cells stained with thioflavin S having a β sheet structure increased 2-fold at MOI=1 and 5.2-fold at MOI=2.5 as compared to lacZ infected well. By containing with a tau specific antibody, almost all thioflavin S positive images were contained with tau and S214 phosphorylated tau. […]"}, "[3]": {"system": "H4 cells infected with PRKX overexpression lentivirus", "assay": "Cell death (DAPI positive cell count) in H4 cells infected with PRKX overexpression lentivirus", "format": "cell-based, human", "conditions": "PRKX lentivirus MOI=1", "method": "H4 cells were plated in a 48 well plate at a concentration of 3.5×10^3 cells/well and, the next day, infected with PRKX or lacZ overexpression lentivirus at MOI=1. Two days later, H-89 was added at 3 or 10 μM. The next day, the cells were fixed, and the nucleus was stained with DAPI. DAPI positive cells were photographed by Discovery-1, and the number of DAPI positive cells was counted from the images by a Metamorph software. […] The cell death was suppressed by 29% or 46% by the addition of 3 μM or 10 μM H-89."}, "[4]": {"system": "mouse primary nerve cells infected with PRKX overexpression lentivirus", "assay": "Neurite elongation (MAP2 staining) in mouse primary nerve cells infected with PRKX overexpression lentivirus", "format": "cell-based", "conditions": "DIV14 mouse primary nerve cells, PRKX lentivirus MOI=2, forskolin 10 μM 2 days", "method": "DIV14 mouse primary nerve cells were plated in a 48 well plate at a concentration of 3.5×10^3 cells/well and infected with PRKX or D172A overexpression lentivirus at MOI=2. Four days after the infection, forskolin was added at a concentration of 10 μM, and the cells were cultured for 2 days. The cells were fixed, nerve cell was labeled with anti-MAP2 monoclonal antibody as a primary antibody, anti-MAP2 antibody was stained with anti-mouse Alexa Fluor 488-labeled secondary antibody, and they were photographed by Discovery-1. The neurite elongation was measured by a metamorph software based on the images taken by Discovery-1. As a result, the decrease of the neurite elongation found with the PRKX overexpression lentivirus was suppressed by 76% by H-89."}, "PRKX [5]": {"molecular_target": "T1, PRKX (Homo sapiens, UniProt P51817)", "T1 sequence (P51817 1-358)": "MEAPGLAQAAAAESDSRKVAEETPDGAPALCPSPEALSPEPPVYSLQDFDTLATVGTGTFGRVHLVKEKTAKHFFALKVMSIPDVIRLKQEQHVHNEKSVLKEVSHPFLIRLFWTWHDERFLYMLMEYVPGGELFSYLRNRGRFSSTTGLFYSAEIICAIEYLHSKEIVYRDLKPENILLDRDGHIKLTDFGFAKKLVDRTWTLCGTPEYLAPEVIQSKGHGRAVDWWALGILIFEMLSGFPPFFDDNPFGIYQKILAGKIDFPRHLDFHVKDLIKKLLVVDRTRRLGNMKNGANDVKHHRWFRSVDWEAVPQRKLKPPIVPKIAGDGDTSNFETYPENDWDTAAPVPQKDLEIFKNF", "conditions": "non-patent document 3; cited from earlier work"}, "PRKX [6]": {"molecular_target": "T1, PRKX", "assay": "Cell-free tau S214 phosphorylation by recombinant PRKX protein, Western blot", "format": "biochemical", "set-up": "purchased Invitrogen", "conditions": "30° C., 60 min", "method": "To a reaction mixture (40 mM Tris-HCl (pH 7.5), 20 mM MgCl2, 0.1 mg/ml BSA, 25 μl) containing recombinant PRKX protein (Invitrogen, 4 μg/ml) and recombinant tau protein (Wako Pure Chemical Industries, Ltd., 40 μg/ml) was added H-89 solution (40 mM Tris-HCl (pH 7.5), 0.1% DMSO, 20 mM MgCl2, 0.1 mg/ml BSA, 5 μl) to a concentration during reaction of 1 or 0.1 μM. As a control, 40 mM Tris-HCl (pH 7.5), 0.1% DMSO, 20 mM MgCl2, 0.1 mg/ml BSA solution (5 μl) were added. 25 μM ATP solution (40 mM Tris-HCl (pH 7.5), 20 mM MgCl2, 0.1 mg/ml BSA) was added by 20 μl to start the reaction and the mixture was left standing at 30° C. for 60 min. An SDS sample buffer was added to quench the reaction, the protein was separated using NuPAGE 4-12% Bis-Tris gel and transferred to a PVDF membrane. Western blot was performed using an anti-S214 phosphorylated tau antibody as a primary antibody and ECL Advance Western Blotting Detection Kit, and S214 phosphorylated tau was quantified by LAS-1000 plus lumino image analyzer. […] By the addition of H-89 at a final concentration of 1 and 0.1 μM, the tau S214 phosphorylation reaction decreased to 5% and 52%, respectively, of that without the addition."}, "PRKX [7]": {"molecular_target": "T1, PRKX", "assay": "Western blot of S214 phosphorylated tau in H4-tau cells transfected with PRKX expression plasmid", "format": "cell-based", "set-up": "using change-1F and hPRKX-1R as primers to give mutant PRKX full-length DNA; expressed in transfected cells; host or cells: H4-tau cells (human H4 neuroglial cells stably expressing human tau), transiently transfected with pPRKXkai (pTARGET vector)", "conditions": "10 μM H-89 added 2 hr before cell recovery", "method": "pFB-Neo-CMV-tau plasmid obtained by inserting a DNA fragment containing a wild-type human tau gene bound at the downstream of a CMV promoter into a multicloning site of pFB-neo vector (Stratagene) was transferred into H4 neuroglial cells according to the instructions of ViraPort(R) Retroviral Gene Expression System (Stratagene), and a cell confirmed to show expression of tau was used as a H4-tau cell. […] After transcription to a PVDF membrane, Western blot was performed using, as a primary antibody, an anti-S214 phosphorylated tau antibody (BioSource) for the detection of S214 phosphorylated tau, an Ab-3 antibody (Lab Vision) for the detection of total tau, and […], and according to the instructions of ECL Advance Western Blotting Detection Kit (Amarsham Bioscience), and each protein was detected by LAS-1000 plus lumino image analyzer (Fujifilm). […] The tranfected cell was dissolved in a cell lysis buffer (BioSource), the amount of S214 phosphorylated tau was measured using a human pS214 tau ELISA kit (BioSource), the amount of total tau was measured using a human total tau ELISA kit (BioSource), each according to the instructions, and the amount of phosphorylated tau in the total tau was examined. […]"}, "PRKX [8]": {"molecular_target": "T1, PRKX", "assay": "pS214 tau / total tau ELISA in PRKX-transfected H4-tau cells", "format": "cell-based", "set-up": "using change-1F and hPRKX-1R as primers to give mutant PRKX full-length DNA; expressed in transfected cells; host or cells: H4-tau cells (human H4 neuroglial cells stably expressing human tau), transiently transfected with pPRKXkai (pTARGET vector)", "conditions": "H-89 10-0.1 μM, 2 hr, pPRKXkai, read-out: IC50 of suppression of the amount of tau S214 phosphorylation (ELISA, phosphorylated tau in total tau)", "method": "pPRKXkai and pTARGET vectors were each transferred into H4-tau cells cultured overnight in a DMEM medium containing 10% FBS, using a Fugene6 transfection reagent. One day later, H-89 was added at a concentration of 10-0.1 μM. 2 hr later, the cells were dissolved in a cell lysis buffer, the amount of S214 phosphorylated tau was measured using a human pS214 tau ELISA kit, the amount of the total tau was measured using a human total tau ELISA kit, and the amount of phosphorylated tau in the total tau was examined. As a result, the amount of tau S214 phosphorylation was suppressed at an IC50 value of 0.7 μM."}, "PRKX [9]": {"molecular_target": "T1, PRKX", "assay": "In-cell infrared fluorescence imaging (Odyssey) of S214 phosphorylated tau and total tau in PRKX-transfected H4-tau cells", "format": "cell-based", "set-up": "using change-1F and hPRKX-1R as primers to give mutant PRKX full-length DNA; expressed in transfected cells; host or cells: H4-tau cells (human H4 neuroglial cells stably expressing human tau), transiently transfected with pPRKXkai (pTARGET vector)", "conditions": "H-89 10-0.1 μM, 2 hr; H4-tau cells in 96 well plate, pPRKXkai; read-out: IC50 of suppression of the amount of tau S214 phosphorylation (infrared fluorescence imaging)", "method": "H4-tau cells were plated in a DMEM medium containing 10% FBS in a 96 well plate at a concentration of 1×10^4 cells/well and, the next day, pPRKXkai and pTARGET vectors were each transferred thereinto using a Fugene6 transfection reagent. One day later, H-89 was added to the medium at a concentration of 10−0.1 μM. 2 hr later, the cells were fixed with 4% para-formaldehyde (Wako Pure Chemical Industries, Ltd.), washed with phosphate buffer, and blocked with phosphate buffer containing 1.5% BSA (Sigma Aldrich) and 0.1% Triton X-100 (Wako Pure Chemical Industries, Ltd.). Thereafter, as a primary antibody, an anti-S214 phosphorylated tau antibody was used to label phosphorylated tau and an anti-tau monoclonal antibody HT-7 (Pierce Biotechnology) was used to label total tau. After washing, they were reacted with an anti-rabbit Alexa Fluor 680-labeled secondary antibody (Invitrogen) and an anti-mouse IRD800CW-labeled secondary antibody (Wako Pure Chemical Industries, Ltd.), as secondary antibodies. After washing, the amounts of S214 phosphorylated tau and total tau were detected using 2 fluorescence system infrared fluorescence Imager Odyssey (ALOKA CO., LTD.). As a result, the amount of tau S214 phosphorylation was suppressed at an IC50 value of 0.7 μM."}},
  "data": [
    {"compound": "O=S(=O)(NCCNC/C=C/c1ccc(Br)cc1)c1cccc2cnccc12", "note": "[H-89]", "values": [
      {"measurement": "amount of tau S214 phosphorylation", "setting": "[1]", "result": "decreased"},
      {"measurement": "suppression of the increase of thioflavin S stained cells", "setting": "[2]", "result": 75, "unit": "%"},
      {"measurement": "suppression of cell death", "setting": "[3]; 3 μM H-89", "result": 29, "unit": "%"},
      {"measurement": "suppression of cell death", "setting": "[3]; 10 μM H-89", "result": 46, "unit": "%"},
      {"measurement": "suppression of the decrease of the neurite elongation", "setting": "[4]", "result": 76, "unit": "%"},
      {"measurement": "inhibition of PRKX", "setting": "PRKX [5]", "result": "inhibit PRKX"},
      {"measurement": "tau S214 phosphorylation reaction, % of that without the addition", "setting": "PRKX [6]; H-89 final concentration 0.1 μM", "result": 52, "unit": "%"},
      {"measurement": "tau S214 phosphorylation reaction, % of that without the addition", "setting": "PRKX [6]; H-89 final concentration 1 μM", "result": 5, "unit": "%"},
      {"measurement": "enhanced S214 phosphorylation of tau (Western blot)", "setting": "PRKX [7]", "result": "enhanced phosphorylation was not found"},
      {"measurement": "IC50", "setting": "PRKX [8]", "result": 700, "unit": "nM"},
      {"measurement": "IC50", "setting": "PRKX [9]", "result": 700, "unit": "nM"}
    ]}
  ]
}
